In patent US11168055B2, “Endocyclic thiamidinoamide-arylamide compound and use thereof for treating hepatitis B” (SHANGHAI LONGWOOD BIOPHARMACEUTICALS CO., LTD., priority 2017, dated 2021) one finds EC50 and CC50 data, which are given here for 41 compounds.

Like-named read-outs stand apart in the source and are kept apart here.

Series [1] relates to HBV DNA in the supernatant of HepG2.2.15. The series can be described thus: Determination of anti-HBV activity in HepG2.2.15 cell (HBV DNA in supernatant by qPCR). Type of series: cell-based, Hepatitis B virus. The note with it: HBV DNA, read-out: Experiment 2 Cell experiment EC50. A general note: In qPCR the cycle at which signal appears reflects the starting amount.
For series [2], the system named is HepG2 cells. The series can be described thus: Determination of cytotoxicity (HepG2 cells, resazurin assay, 4 days). The class given is cell-based. The note with it: read-out: Experiment 3 Cytotoxicity CC50. As for the experimental part: (§1) Experiment 3: Determination of Cytotoxicity
(§2) The cytotoxicity of the test compound was tested using HepG2 cells. The cells were incubated for 4 days in the presence of the test compound. Cell activity was assessed using the resazurin assay.

Assay in series [3]: as above
Type of series: cell-based. The note with it: human, read-out: Experiment 3 Cytotoxicity CC50. As for the experimental part: as §1, §2

The mark [4] stands for this setting: Hepatitis B virus, HepG2.2.15, HepG2.2.15 cells.

Usually EC50 stands for the concentration needed to bring the measured effect to its halfway point. In general, CC50 refers to the concentration that lowers cell viability or growth by half. Regarding `C[C@@H](OCc1ccccc1)[C@H]1CCc2c(cn(C)c2C(=O)Nc2ccc(F)c(C#N)c2)S(=N)(=O)N1` (single isomer, unassigned) [Compound 20ccc2], in series [1] (HepG2.2.15 cells), the EC50 lay within 0.1 to 100 nM. The cytotoxic concentration (CC50) in series [2] was greater than 30000 nM.
For the compound `Cn1cc2c(c1C(=O)Nc1ccc(F)c(F)c1)C=C[C@H](C1CCCCC1)NS2(=N)=O` (single isomer, unassigned) [Compound 10bb2], the EC50 in series [1] (HepG2.2.15 cells) lay in the range of 0.1 to 100 nM. For the same compound, in series [2], the CC50 was greater than 30000 nM.
For `CC(C)[C@H]1C=Cc2c(nn(C)c2C(=O)Nc2ccc(F)c(C#N)c2)S(=N)(=O)N1` (single isomer, unassigned) [Compound 70a2], in that order: 0.1 to 100 nM and greater than 30000 nM.
As to `Cn1cc2c(c1C(=O)Nc1cc(F)nc(C#N)c1)CC[C@H](C1CCCCC1)NS2(=N)=O` (single isomer, unassigned) [Compound 20dd2], in series [1] (HepG2.2.15 cells), the EC50 lay within 0.1 to 100 nM. Besides, the CC50 in series [2] is greater than 30000 nM.
In the case of `CC(C)C[C@H]1C=Cc2c(cn(C)c2C(=O)Nc2cc(F)nc(C#N)c2)S(=N)(=O)N1` (single isomer, unassigned) [Compound 10w2], in series [1] (HepG2.2.15 cells), the EC50 was in the range of 0.1 to 100 nM. For the same compound, in series [2], the CC50 was greater than 30000 nM.
For `COc1ccc(CC[C@H](C)[C@H]2C=Cc3c(cn(C)c3C(=O)Nc3cc(F)nc(C#N)c3)S(=N)(=O)N2)cc1` (single isomer, unassigned) [Compound 10vvv2], in that order: 0.1 to 100 nM and greater than 30000 nM.
Take `Cn1cc2c(c1C(=O)Nc1ccc(F)c(F)c1)C=C[C@H](CO)NS2(=N)=O` (single isomer, unassigned) [Compound 30g2]: the EC50 in series [1] (HepG2.2.15 cells) lay in the range of 100 to 1000 nM. Moreover, the CC50 in series [2] is greater than 30000 nM.
The like results for `CC(O)[C@H]1C=Cc2c(cn(C)c2C(=O)Nc2ccc(F)c(F)c2)S(=N)(=O)N1` (single isomer, unassigned) [Compound 30a2] were, in that order, 100 to 1000 nM and greater than 30000 nM.
As to `CCN=S1(=O)N[C@@H](C(C)C)CCc2c1cn(C)c2C(=O)Nc1ccc(F)c(C#N)c1` (single isomer, unassigned) [Compound 60g2], the EC50 in series [1] (HepG2.2.15 cells) lay in the range of 0.1 to 100 nM. Also, the CC50 in series [2] is greater than 30000 nM.
As to `CN=S1(=O)N[C@@H](C(C)C)CCc2c1nn(C)c2C(=O)Nc1ccc(F)c(C#N)c1` (single isomer, unassigned) [Compound 90a2], the EC50 in series [1] (HepG2.2.15 cells) was 0.1 to 100 nM. Also, the CC50 in series [2] is greater than 30000 nM.
On to `CN=S1(=O)N[C@@H](C(C)C)CCc2c1cn(C)c2C(=O)Nc1ccc(F)c(F)c1` (single isomer, unassigned) [Compound 60a2], for which the EC50 in series [1] (HepG2.2.15 cells) lay in the range of 0.1 to 100 nM. Also, in series [2], the CC50 was greater than 30000 nM.
The like results for `CN=S1(=O)N[C@@H](CC(C)C)CCc2c1nn(C)c2C(=O)Nc1ccc(F)c(C#N)c1` (single isomer, unassigned) [Compound 90b2] were, in that order, 0.1 to 100 nM and greater than 30000 nM.
As to `CN=S1(=O)N[C@@H](CC(C)C)CCc2c1cn(C)c2C(=O)Nc1ccc(F)c(C#N)c1` (single isomer, unassigned) [Compound 60v2], the EC50 in series [1] (HepG2.2.15 cells) fell in the range of 0.1 to 100 nM. The CC50 in series [2] was greater than 30000 nM.
Turning to `COc1ccc(CC[C@H](C)[C@H]2CCc3c(cn(C)c3C(=O)Nc3cc(F)c(F)c(F)c3)S(=N)(=O)N2)cc1` (single isomer, unassigned) [Compound 20ttt2], in series [1] (HepG2.2.15 cells), the EC50 was in the range of 0.1 to 100 nM. Moreover, the CC50 in series [2] was greater than 30000 nM.
Take `CN=S1(=O)N[C@@H](CC(C)C)C=Cc2c1cn(C)c2C(=O)Nc1ccc(F)c(C#N)c1` (single isomer, unassigned) [Compound 50s2]: the EC50 in series [1] (HepG2.2.15 cells) lay within 0.1 to 100 nM. Moreover, the CC50 in series [2] is greater than 30000 nM.
For `Cn1cc2c(c1C(=O)Nc1ccc(F)c(F)c1)CC[C@H](CO)NS2(=N)=O` (single isomer, unassigned) [Compound 40g2], in that order: 100 to 1000 nM and greater than 30000 nM.
The like results for `CC(C)C[C@H]1C=Cc2c(nn(C)c2C(=O)Nc2ccc(F)c(C#N)c2)S(=N)(=O)N1` (single isomer, unassigned) [Compound 70b2] were, in that order, 0.1 to 100 nM and greater than 30000 nM.
On to `CC(C)[C@H]1C=Cc2c(cn(C)c2C(=O)Nc2ccc(F)c(C#N)c2)S(=N)(=O)N1` (single isomer, unassigned) [Compound 10b2], for which the EC50 in series [1] (setting [4]) lay within 0.1 to 100 nM. For the same compound, the CC50 in series [2] is greater than 30000 nM.
On to `Cn1cc2c(c1C(=O)Nc1ccnc(C(F)F)c1)CC[C@H](C1CCCCC1)NS2(=N)=O` (single isomer, unassigned) [Compound 20ee2], for which, in series [1] (HepG2.2.15 cells), the EC50 was 0.1 to 100 nM. For the same compound, the 50% cytotoxic concentration (CC50) in series [2] was greater than 30000 nM.
For `CC(C)[C@H]1C=Cc2c(cn(C)c2C(=O)Nc2ccnc(C(F)F)c2)S(=N)(=O)N1` (single isomer, unassigned) [Compound 10f2], in that order: 0.1 to 100 nM and greater than 30000 nM.
For `CC[C@H](C)[C@H]1C=Cc2c(cn(C)c2C(=O)Nc2ccc(F)c(F)c2)S(=N)(=O)N1` (single isomer, unassigned) [Compound 10n2], in that order: 0.1 to 100 nM and greater than 30000 nM.
The like results for `CC(O)[C@H]1C=Cc2c(cn(C)c2C(=O)Nc2ccc(F)c(C#N)c2)S(=N)(=O)N1` (single isomer, unassigned) [Compound 30b2] were, in that order, 100 to 1000 nM and greater than 30000 nM.
`CC(C)[C@H]1CCc2c(cn(C)c2C(=O)Nc2ccc(F)c(C#N)c2)S(=N)(=O)N1` (single isomer, unassigned) [Compound 20b2]: in series [1] (HepG2.2.15 cells), the EC50 lay within 0.1 to 100 nM. The CC50 in series [2] was greater than 30000 nM.
Take `Cn1cc2c(c1C(=O)Nc1ccc(F)c(C#N)c1)C=C[C@H](C1CCCCC1)NS2(=N)=O` (single isomer, unassigned) [Compound 10cc2]: the EC50 in series [1] (HepG2.2.15 cells) is 0.1 to 100 nM. Further, the half-maximal cytotoxic concentration (CC50) in series [2] was greater than 30000 nM.
For `C[C@@H](OCc1ccccc1)[C@H]1C=Cc2c(cn(C)c2C(=O)Nc2cc(F)c(F)c(F)c2)S(=N)(=O)N1` (single isomer, unassigned) [Compound 10ddd2], in that order: 0.1 to 100 nM and greater than 30000 nM.
For `CC(C)C[C@H]1C=Cc2c(cn(C)c2C(=O)Nc2ccc(F)c(C#N)c2)S(=O)(=NC2CC2)N1` (single isomer, unassigned) [Compound 50v2], in that order: 0.1 to 100 nM and greater than 30000 nM.
Regarding `CC(C)[C@H]1C=Cc2c(nn(C)c2C(=O)Nc2ccc(F)c(C#N)c2)S(=N)(=O)N1` (single isomer, unassigned) [Compound 70a1], the EC50 in series [1] (HepG2.2.15 cells) was in the range of 100 to 1000 nM. In series [3], the CC50 at 4 days was greater than 30000 nM.
For `CN=S1(=O)N[C@@H](C(C)C)CCc2c1cn(C)c2C(=O)Nc1ccc(F)c(F)c1` (single isomer, unassigned) [Compound 60a1], in that order: 100 to 1000 nM and greater than 30000 nM.
The like results for `CC(C)[C@H]1CCc2c(cn(C)c2C(=O)Nc2ccc(F)c(C#N)c2)S(=N)(=O)N1` (single isomer, unassigned) [Compound 20b1] were, in that order, 100 to 1000 nM and greater than 30000 nM.
Take `CC(O)[C@H]1CCc2c(cn(C)c2C(=O)Nc2ccc(F)c(C#N)c2)S(=N)(=O)N1` (single isomer, unassigned) [Compound 40b1]: in series [1] (setting [4]), the EC50 fell in the range of 100 to 1000 nM. For the same compound, in series [3], the CC50 at 4 days was greater than 30000 nM.
Consider `CC(C)C[C@H]1CCc2c(cn(C)c2C(=O)Nc2ccc(F)c(C#N)c2)S(=O)(=NC(C)C)N1` (single isomer, unassigned) [Compound 60x1], for which the EC50 in series [1] (HepG2.2.15 cells) fell in the range of 100 to 1000 nM. In series [3], the CC50 at 4 days is greater than 30000 nM.
For `CC(C)[C@@H]1C=Cc2c(cn(C)c2C(=O)Nc2ccc(F)c(F)c2)S(=N)(=O)N1` (single isomer, unassigned) [Compound 10g1], in that order: 100 to 1000 nM and greater than 30000 nM.
As for `CC[C@H](C)[C@H]1C=Cc2c(cn(C)c2C(=O)Nc2ccc(F)c(C#N)c2)S(=N)(=O)N1` (single isomer, unassigned) [Compound 10o1], in series [1] (HepG2.2.15 cells), the EC50 was 100 to 1000 nM. Moreover, the cytotoxic concentration (CC50) at 4 days in series [3] was greater than 30000 nM.
Regarding `CC(O)[C@H]1CCc2c(cn(C)c2C(=O)Nc2ccc(F)c(F)c2)S(=N)(=O)N1` (single isomer, unassigned) [Compound 40a1], the EC50 in series [1] (setting [4]) fell in the range of 100 to 1000 nM. For the same compound, the CC50 at 4 days in series [3] was greater than 30000 nM.
The like results for `Cn1cc2c(c1C(=O)Nc1ccc(F)c(F)c1)C=C[C@H](CO)NS2(=N)=O` (single isomer, unassigned) [Compound 30g1] were, in that order, 100 to 1000 nM and greater than 30000 nM.
For the compound `CC(C)C[C@H]1C=Cc2c(cn(C)c2C(=O)Nc2cc(F)nc(C#N)c2)S(=N)(=O)N1` (single isomer, unassigned) [Compound 10w1], the EC50 in series [1] (HepG2.2.15 cells) fell in the range of 100 to 1000 nM. Also, the CC50 at 4 days in series [3] is greater than 30000 nM.
As to `CC(C)[C@H]1C=Cc2c(cn(C)c2C(=O)Nc2cc(F)nc(C#N)c2)S(=N)(=O)N1` (single isomer, unassigned) [Compound 10e1], the concentration for a half-maximal effect (EC50) in series [1] (HepG2.2.15 cells) was 100 to 1000 nM. Also, the CC50 at 4 days in series [3] is greater than 30000 nM.
The like results for `CC(C)C[C@H]1CCc2c(nn(C)c2C(=O)Nc2ccc(F)c(C#N)c2)S(=N)(=O)N1` (single isomer, unassigned) [Compound 80b1] were, in that order, 100 to 1000 nM and greater than 30000 nM.
As to `CCN=S1(=O)N[C@@H](CC(C)C)CCc2c1cn(C)c2C(=O)Nc1ccc(F)c(C#N)c1` (single isomer, unassigned) [Compound 60w1], in series [1] (HepG2.2.15 cells), the EC50 lay within 100 to 1000 nM. Moreover, the CC50 at 4 days in series [3] was greater than 30000 nM.
The like results for `CC(C)C[C@H]1C=Cc2c(cn(C)c2C(=O)Nc2ccc(F)c(C#N)c2)S(=O)(=NC(C)C)N1` (single isomer, unassigned) [Compound 50u1] were, in that order, 100 to 1000 nM and greater than 30000 nM.
As to `CN=S1(=O)N[C@@H](C(C)C)CCc2c1nn(C)c2C(=O)Nc1ccc(F)c(C#N)c1` (single isomer, unassigned) [Compound 90a1], the EC50 in series [1] (HepG2.2.15 cells) lay within 100 to 1000 nM. In addition, the CC50 at 4 days in series [3] is greater than 30000 nM.
